Measurements from US20210023089A1, “Compositions Useful for Treating Herpes Simplex Keratitis, and Methods Using Same” (priority 2013, published 2021).

How the values were obtained:
HSV-1 = experiment: qPCR of viral genome replication in HSV-1 infected HCE cells; type: cell-based, HSV-1 (KOS strain); settings: MOI 0.1, inhibitor 10 μM
Experimental: All cells were cultured at 37° C. and 5% CO2, and supplemented with 100 U/ml penicillin and 100 μg/ml streptomycin. Human corneal epithelial cells immortalized with hTERT (hTCEpi; Bahassi et al., 2008, Oncogene 27:3977-3985) were grown in complete KGM-2 medium. Human corneal epithelial cells immortalized with SV40 large T antigen (HCE; Araski-Sasaki et al., 1995, Invest. Ophthalmol. Visual Sci. 36:614-621), as well as African green monkey kidney fibroblasts (CV-1; Jensen et al., 1964, Proc. Natl. Acad. Sci. USA 52:53-59), were grown in DMEM medium supplemented with 10% FBS. KOS strain (Smith, Proc. Soc. Exp. Biol. Med. Soc. Exp. Biol. Med. 115:814-816) of HSV-1 was used in all infections. All viral stocks were titered on CV-1 monolayers.
Tetracyline-inducible Chk2 knockdown cell line was derived by lentivirally transducing HCE cells with a construct harboring shRNA sequence against the Chk2 transcript. The Chk2 shRNA sequence was acquired from Sigma (NM_007194.2-129951c1) and targets the following region: 5′-[…]-3′ (SEQ ID NO:1). Lentiviral particles were produced in 293T packaging cells (Dull et al., 1998, J. Virol. 72:8463-8471). […]
Total DNA from infected cells and corneas was isolated using the DNeasy Blood & Tissue Kit (QIAGEN, Hilden, Germany). Real time quantitative PCR was performed with SYBR Green (Bio-Rad, Hercules, Calif.). […]

McKrae strain HSV-1 = experiment: Mouse model of ocular HSV-1 keratitis, disease scoring; type: in vivo, C57BL/6J mice; settings: 200 μM topical
Experimental: Four-week-old female C57BL/6J mice were anesthetized with isoflurane, and their left eyes were scarified in a 4×4 crosshatch pattern with a 28-gauge needle. […] strain HSV-1 was applied in 1 μL inoculum volume at 8×10^5 PFU/eye and the eyelid gently massaged. The infection was allowed to develop for 24 hours, at which point treatments were initiated. KU-55933 was delivered to the corneas dissolved in PBS to a concentration of 200 μM. Control treatments constituted an equivalent amount of DMSO (0.2% vol/vol) in PBS drops. Treatments were administered every 4 hours for 1 full day and then every 8 hours for the remainder of the experiment. Ocular disease severity was assessed at every 24-hour period postinfection. Two disease parameters were scored based on a number scale (Jose et al., 2013, Invest Ophthalmol Vis Sci 54:1070-1079). Briefly, stromal keratitis was scored as 1+, cloudiness, some iris detail visible; 2+, iris detail obscured; 3+, cornea totally opaque; and 4+, corneal perforation. Blepharitis was scored as 1+, puffy eyelids; 2+, puffy eyelids with some crusting; 3+, eye swollen shut with severe crusting; and 4+, eye completely swollen shut and crusted over.

hTCEpi cells = experiment: Colony survival assay; type: cell-based, human
Experimental: hTCEpi cells were treated with KU-55933 (10 μM) or DMSO for 24 hours, trypsinized, counted, and plated into 6-cm dishes at 50 cells/dish. After 2 weeks, colonies were fixed with 10% buffered formalin, stained with 0.01% crystal violet, rinsed, and counted.

NC(=O)c1ccc2[nH]c(-c3ccc(Oc4ccc(Cl)cc4)cc3)nc2c1 [Chk2 inhibitor II, 2-(4-(4-chlorophenoxy)phenyl)-1H-benzimidazole-5-carboxamide]
viral genome replication (qPCR) (HSV-1): profoundly reduced

O=c1cc(-c2cccc3c2Sc2ccccc2S3)oc(N2CCOCC2)c1 [KU-55933, 2-(morpholin-4-yl)-6-(thianthren-1-yl)-pyran-4-one]
difference in blepharitis score versus control group (McKrae strain HSV-1): not statistically significant | stromal disease severity (stromal keratitis score) (McKrae strain HSV-1; started 24 hpi, every 4 hours for 1 day then every 8 hours): notable and statistically significant reduction | stromal keratitis state by day 5 postinfection, on average (McKrae strain HSV-1; all control mice developed corneal perforation): only corneal opacity | survival and proliferation of cultured cells after treatment (hTCEpi cells; 2 full weeks following a 24-hour treatment): able to survive and proliferate well | clonal survival compared to mock-treated controls (hTCEpi cells; hTCEpi cells, KU-55933 10 μM continuously for 24 hours): roughly 70%
